Common to all, as to format: cell-based, Human
The test system of one assay is MKN-45. As to the kind of experiment: Cell growth inhibition assay (SRB), MKN-45. Conditions: MKN-45 (stomach), 96 hours. The text has this:
(§1) Cancer cells used in this study to determine the effect of quinazoline compounds were obtained from the following sources: Human OVCAR-3 (ovary), MCF-7 (breast, hormone-dependent), Hs 578T (breast), MDA-MB-231 (breast), HeLa (cervix), PC3 (prostate), HepG2 (liver), A549 (lung), Caki-1 (kidney), HT-29 (colon), HCT116 (colon) and PANC-1 (pancreas) from the American Type Culture Collection (ATCC) (Manassas, Va.); U251 (brain) from Riken (Japan); MKN-45 (stomach) from DSMZ (Germany); UMRC2 (kidney) and Lox IMVI (melanoma) from the United States National Cancer Institute (Bethesda, Md.). All cell lines except Hs 578T, MDA-MB-231, HCT116, UMRC2, Caki-1 and PANC-1 were grown in RPMI1640 medium (Invitrogen, Carlsbad, Calif.) supplemented with 10% fetal bovine serum (“FBS”), 1 mM sodium pyruvate, 10 mM HEPES and 100 U/ml penicillin and 100 μg/ml streptomycin (“P/S”). Hs 578T, MDA-MB-231, HCT116, UMRC2, Caki-1 and PANC-1 cells were maintained in Dulbecco's modified Eagle's medium (“DMEM”, Invitrogen) supplemented with 10% FBS, P/S, 10 mM HEPES and 2 mM L-glutamine. All cells were incubated at 37° C. under humidified 5% CO2.
(§2) The growth inhibition of the substituted quinazoline derivative compounds against a variety of human tumor cells was evaluated. The relative importance of particular substituent groups on the compounds was also studied. The substituted quinazoline derivative compounds, prepared as described above, were tested, along with DMSO as a control.
(§3) The growth inhibition assay of various compounds against 15 human tumor cell lines was performed using the Sulforhodamnine B (“SRB”) method (Skehan et al., J. National Cancer Institute, 82: 1107-1112 (1990)). Briefly, exponentially growing tumor cells were seeded into a 96-well plate at a density of 2-3×10^3 cells/well and treated with quinazoline compounds the next day. Triplicate wells were used for each treatment. The cells were. incubated with the various compounds for 96 hours at 37° C. in a humidified 5% CO2 atmosphere. After 96-hour incubation, cells were fixed with 10% trichloroacetic acid (“TCA”), incubated for 1 hour at 4° C., and washed 3 times with tap water. Subsequently cells were stained with 0.4% sulforhodamine B in 1% acetic acid for 30 minutes, washed 4 times with 1% acetic acid, and air-dried again. After 5 minutes agitation in 10 mM Tris solution, the absorbance of each well was measured at 530 nm using Benchmark Plus Microplate reader (Bio-Rad Laboratories, Hercules, Calif.).
(§4) To translate the OD530 values into the number of live cells in each well, the OD530 values were compared to those on standard OD530—versus—cell number curves generated for each cell line. The percent survival was calculated using the formula: % Survival=live cell number [test]/live cell number [control]×100
(§5) The IC50 values were calculated by non-linear regression analysis.

The subject of a further assay is HeLa. As to the kind of experiment: Cell growth inhibition assay (SRB), HeLa. Conditions: HeLa (cervix), 96 hours.
Text: as §1, §2, §3, §4, §5

In another assay the test system is Hs 578T. As to the kind of experiment: Cell growth inhibition assay (SRB), Hs 578T. As to conditions: Hs 578T (breast), 96 hours.
Text: as §1, §2, §3, §4, §5

The next assay has as its system HT-29. The assay is described as follows: Cell growth inhibition assay (SRB), HT-29. Conditions: HT-29 (colon), 96 hours.
Text: as §1, §2, §3, §4, §5

In a further assay the test system is Caki-1. The assay is described as follows: Cell growth inhibition assay (SRB), Caki-1. As to conditions: Caki-1 (kidney), 96 hours.
Text: as §1, §2, §3, §4, §5

A further assay relates to PANC-1. As to the kind of experiment: Cell growth inhibition assay (SRB), PANC-1. Conditions: PANC-1 (pancreas), 96 hours.
Text: as §1, §2, §3, §4, §5

The subject of the next assay is A549. As to the kind of experiment: Cell growth inhibition assay (SRB), A549. Conditions: A549 (lung), 96 hours.
Text: as §1, §2, §3, §4, §5

A further assay relates to MCF-7. As to the kind of experiment: Cell growth inhibition assay (SRB), MCF-7. As to conditions: MCF-7 (breast, hormone-dependent), 96 hours.
Text: as §1, §2, §3, §4, §5

The next assay concerns OVCAR-3. As to the kind of experiment: Cell growth inhibition assay (SRB), OVCAR-3. Conditions: OVCAR-3 (ovary), 96 hours.
Text: as §1, §2, §3, §4, §5

The subject of the next assay is HepG2. The assay is described as follows: Cell growth inhibition assay (SRB), HepG2. Conditions: HepG2 (liver), 96 hours, read-out: Inhibition of cell growth (IC50, μM) HepG 2.
Text: as §1, §2, §3, §4, §5

Another assay has as its system PC3. The assay is described as follows: Cell growth inhibition assay (SRB), PC3. Conditions: PC3 (prostate), 96 hours.
Text: as §1, §2, §3, §4, §5

The next assay deals with MDA-MB-231. As to the kind of experiment: Cell growth inhibition assay (SRB), MDA-MB-231. As to conditions: MDA-MB-231 (breast), 96 hours.
Text: as §1, §2, §3, §4, §5

A further assay has as its system UMRC2. The assay is described as follows: Cell growth inhibition assay (SRB), UMRC2. Conditions: UMRC2 (kidney), 96 hours.
Text: as §1, §2, §3, §4, §5

For another assay, the system named is U251. The assay is described as follows: Cell growth inhibition assay (SRB), U251. As to conditions: U251 (brain), 96 hours.
Text: as §1, §2, §3, §4, §5

In the next assay the test system is Lox IMVI. The assay is described as follows: Cell growth inhibition assay (SRB), Lox IMVI. Conditions: Lox IMVI (melanoma), 96 hours.
Text: as §1, §2, §3, §4, §5

Bounds are passed on as bounds.

Regarding `Ic1ccc2ncnc(NC3CCCCC3)c2c1` [RX-1659], the IC50 is over 3 µM in the assay on MKN-45; over 3 µM with HeLa; over 3 µM with Hs 578T; over 3 µM in the assay with HT-29; 1.71 µM with Caki-1; over 3 µM in the assay on PANC-1. The IC50 with A549 is over 3 µM; in the assay on MCF-7, 0.36 µM; in the assay on OVCAR-3, over 3 µM; with HepG2 it was 1 µM; in the assay with PC3, over 3 µM; in the assay with MDA-MB-231, over 3 µM. Also, the half-inhibitory concentration (IC50) in the assay with UMRC2 was over 3 µM; in the assay with U251, 0.51 µM; in the assay with Lox IMVI, 1.95 µM.
Consider `Fc1cc(Cl)ccc1Nc1ncnc2ccc(Br)cc12` [RX-1279], for which the IC50 with MKN-45 is over 3 µM; in the assay on HeLa, over 3 µM; with Hs 578T it was over 3 µM; in the assay on HT-29, over 3 µM; with Caki-1 it was 2.15 µM; with PANC-1 it was over 3 µM. The IC50 was 2.86 µM in the assay on A549; over 3 µM in the assay on MCF-7; over 3 µM with OVCAR-3; 0.75 µM with HepG2; over 3 µM in the assay on PC3; over 3 µM with MDA-MB-231. For the same molecule, the IC50 in the assay on UMRC2 was over 3 µM; in the assay on U251, 2.97 µM; in the assay on Lox IMVI it was over 3 µM.
Regarding `Brc1ccc2ncnc(NCCCCc3ccccc3)c2c1` [RX-1251], the IC50 with MKN-45 was over 3 µM; in the assay with HeLa it was over 3 µM; with Hs 578T it was 0.43 µM; in the assay with HT-29, over 3 µM; in the assay with Caki-1, 1.96 µM; with PANC-1 it was over 3 µM. Also, the half-maximal inhibitory concentration (IC50) with A549 is 1.92 µM; in the assay on MCF-7 it was 0.55 µM; in the assay with OVCAR-3, over 3 µM; in the assay on HepG2, 0.9 µM; with PC3, over 3 µM; in the assay with MDA-MB-231 it was 0.34 µM. The IC50 in the assay on UMRC2 stood at 0.47 µM; in the assay with U251, 0.42 µM; with Lox IMVI, 0.19 µM.
As to `Cn1cnc2cc3ncnc(NCc4cccc(F)c4)c3cc21` [RX-1881], the 50% inhibitory concentration (IC50) is over 3 µM with MKN-45; over 3 µM in the assay on HeLa; over 3 µM with Hs 578T; over 3 µM in the assay on HT-29; 2.34 µM with Caki-1; over 3 µM in the assay on PANC-1. Further, the IC50 with A549 was over 3 µM; with MCF-7, 0.68 µM; with OVCAR-3, over 3 µM; in the assay with HepG2 it was 1.29 µM; in the assay with PC3, over 3 µM; in the assay with MDA-MB-231, over 3 µM. Besides, the half-maximal inhibitory concentration (IC50) was over 3 µM with UMRC2, 0.91 µM with U251 and over 3 µM in the assay on Lox IMVI.
In the case of `FC(F)(F)c1ccccc1CNc1ncnc2ccc(I)cc12` [RX-1682], the IC50 with MKN-45, with HeLa, in the assay with Hs 578T, in the assay on HT-29, with Caki-1 and in the assay on PANC-1 was over 3 µM in each case. The 50% inhibitory concentration (IC50) was over 3 µM in the assay with A549; 0.55 µM in the assay on MCF-7; over 3 µM with OVCAR-3; 1.51 µM with HepG2; over 3 µM with PC3; over 3 µM with MDA-MB-231. The half-inhibitory concentration (IC50) was over 3 µM in the assay on UMRC2, 0.53 µM in the assay with U251 and over 3 µM in the assay on Lox IMVI.
`Ic1ccc2ncnc(NCCCCc3ccccc3)c2c1` [RX-1670]: the IC50 was over 3 µM in the assay with MKN-45; over 3 µM in the assay with HeLa; 1.35 µM in the assay with Hs 578T; over 3 µM in the assay with HT-29; over 3 µM with Caki-1; over 3 µM with PANC-1. The IC50 is over 3 µM in the assay with A549; 0.43 µM in the assay on MCF-7; over 3 µM in the assay on OVCAR-3; 1.51 µM in the assay with HepG2; over 3 µM with PC3; 1.06 µM with MDA-MB-231. Besides, the IC50 worked out at 1.53 µM in the assay with UMRC2, 0.62 µM with U251 and 0.88 µM in the assay on Lox IMVI.

For orientation: IC50 means the concentration that gives 50% inhibition.

The record behind these values is patent US7388014B2, “Quinazoline derivatives and therapeutic use thereof” (Rexahn Pharmaceuticals, Inc., priority 2004, dated 2008).
